“Also recorded” adds a separate entry of the source.
Experiments:
[1] = system: EAhy 926 endothelial cell line; assay: Endothelial cell morphology evaluation (rounding up); assay type: cell-based; conditions: Homo sapiens, EA.hy 926; 2 h incubation; rounding up of more than 15% of cells; read-out: Cmarr EA.hy 926: lowest concentration at which cell rounding up was observed
Source text: To assess the effects of the compounds on the morphology of endothelial cells, the EAhy 926 endothelial cell line was used, which is derived from the fusion of human umbilical vein endothelial cells (HUVEC) with the permanent human cell line A549 (Edgell et al, Proc. Natl. Acad. Sci. U.S.A., 1983, vol 80, issue 12, 3734-3737). The EAhy 926 cell line is considered as a good representative of native HUVEC because it expresses most of the biochemical markers of parental HUVEC (Bouis et al., Angiogenesis., 2001, 4, 91-102). EAhy 926 cells were grown in DMEM containing 2 mM L-glutamine, 10% foetal bovine serum, 100 U/mL penicillin and 100 μg/mL streptomycin in a humidified atmosphere (37° C., 5% CO2). Exponentially growing EAhy 926 cells were plated onto 96 well plates at 5000 cells/100 μL/well. Twenty-four hours after plating, the medium was aspirated, and 100 μL of medium containing the test compound was added to the well containing the cells (in triplicate) and incubated for 2 h (37° C., 5% CO2). The highest concentration used was 100 μM followed by serial two-fold dilutions down to low nanomolar concentrations, if needed for the most morphologically active compounds. After the 2 h-incubation period, digital photographs were taken of representative centre areas of each well at a magnification of 100× and 200×. The results are presented as the minimum concentration that could elicit the rounding up of more than 15% of cells in a field in order to exclude normal mitotic cells which is less that 15% in control 1% DMSO treated cells. Triplicate concentrations on the same plate were routinely carried out. CA4 was included in the experiments as a positive internal standard.
Compounds of the invention were first tested on EAhy 926 endothelial cells, which are transformed HUVEC (human umbilical vein endothelial cells). These cells undergo a rounding up upon a short 2 hour exposure to vascular disrupting agents, e.g. combretastatin A4.

[2] = system: Eahy 926 endothelial cells (preformed cords on Matrigel); assay: Endothelial cell cords disruption assay; assay type: cell-based, human; conditions: 2 hour exposure
Description: Eahy 926 endothelial cells were seeded onto a Matrigel layer in 6 well plates and allowed to form microvascular structures for 48 h (cords). […] In this experiment the control solvent used was 1% DMSO final concentration, because this solvent was required to solubilize combretastatin A4 used as a positive internal control. Digital photographs of the same plate region were taken before drug application and two hours after.
Another typical effect of antivascular agents is the disruption of preformed cords of endothelial cells grown on a Matrigel layer.

[3] = system: human cancer cell lines; assay: Cytotoxicity on the whole panel of human cancer cell lines (MTS); assay type: cell-based; conditions: all human cancer cell lines of Table 2; read-out: IC50 values, range over all cell lines
[4] = system: colon 26 carcinoma; assay: Antitumor activity in colon 26 carcinoma bearing mice; conditions: for Tumor Log10 cell kill: [(T − C)/3.32] × Td, Td 2 days
[5] = system: Lewis lung carcinoma; assay: Antitumor activity in Lewis lung carcinoma bearing mice; conditions: for Drug death: deaths/animals; for Tumor Log10 cell kill: [(T − C)/3.32] × Td, Td 2.2 days
Description: Animal body weights included the tumor weights.
The percent T/C value is calculated as follows:

[6] = 31 mg/kg i.p. days 4, 5, 11, 12, 14, 15
[7] = 50 mg/kg i.p. days 4, 5, 11, 12, 14, 15
[8] = 50 mg/kg i.p. days 4-8 and 11-15
[9] = 55 mg/kg i.p. days 4-8 and 11-15
[10] = 55 mg/kg i.p. days 4-8 and 11-15, hydrochloride

In the case of COc1cc(Nc2c3c(nc4cc5c(cc24)OCO5)CCCC3=O)cc(OC)c1OC.Cl [SGR307.HCl, 6,7-(Methylenedioxy)-9-(3,4,5-trimethoxyphenylamino)-3,4-dihydroacridin-1(2H)-one, hydrochloride], the minimal effective concentration [1] is reported as 0.06 µM, the “Lowest concentration at which destruction of endothelial cords is observed” value [2] is reported as 0.5 µM and the IC50 [3] is reported as 30 to 380 nM. For the same compound, the “T − C (day), tumor growth delay” value [4, 6] was 7.7 days, the “Time for median tumor to reach 750 mg” value [4, 6] was 21.2 days and the “% T/C day 15” value [4, 6] was 15.4%. The “Mean tumor vol (mm^3) day 15” value [4, 6] was 168 mm^3, the “Mean body wt change [g/mouse (day of nadir)]” value (“Mean body wt change” below) ([4]; 31 mg/kg i.p. days 4, 5, 11, 12, 14, 15, nadir d6) was −0.7 g/mouse and the “Tumor Log10 cell kill” value ([4]; 31 mg/kg i.p.) was 4.6. For the same compound, the “T − C (day), tumor growth delay” value [4, 7] was 13.7 days, the “Time for median tumor to reach 750 mg” value [4, 7] was 27.2 days and the “% T/C day 15” value [4, 7] was 2.8%. For the same compound, the “Mean tumor vol (mm^3) day 15” value [4, 7] was 31 mm^3, the “Mean body wt change” value ([4]; 50 mg/kg i.p. days 4, 5, 11, 12, 14, 15, nadir d7) was −2.6 g/mouse and the “Tumor Log10 cell kill” value ([4]; 50 mg/kg i.p.) was 8.3. For the same compound, the Body weight loss ([4]; 80 mg/kg i.p. days 4, 5, 11, 12, 14, 15) was over 20%, the “Mean body wt change” value ([4]; 80.6 mg/kg i.p. days 4, 5, 11, 12, 14, 15, nadir d14) was −5.4 g/mouse and the “T − C (day), tumor growth delay” value [5, 8] was 4.5 days. The “Time for median tumor to reach 500 mm^3” value [5, 8] was 14.1 days, the “T/C day 18 (%)” value [5, 8] was 36.2% and the “Mean tumor volume (mm^3) on day 18 (range)” value ([5]; 50 mg/kg i.p. days 4-8 and 11-15, range 297-2230) was 1158 mm^3. For the same compound, the Drug death [5, 8] was 0/5, the “Note (activity / toxicity assessment)” value ([5]; 50 mg/kg i.p. days 4-8 and 11-15, hydrochloride) was “not toxic; also recorded: highly active” and the “Mean body wt change” value ([5]; 50 mg/kg i.p. days 4-8 and 11-15, nadir d6) was −0.5 (d6) g/mouse. The “Tumor Log10 cell kill” value ([5]; 50 mg/kg i.p., hydrochloride) was 3, the “Time for median tumor to reach 500 mm^3” value [5, 9] was 17.4 days and the “T/C day 18 (%)” value [5, 9] was 19.3%. The “Mean tumor volume (mm^3) on day 18 (range)” value ([5]; 55 mg/kg i.p. days 4-8 and 11-15, range 457-806) was 619 mm^3, the Drug death [5, 9] was 0/5 and the “Note (activity / toxicity assessment)” value [5, 10] was “not toxic; also recorded: highly active”. For the same compound, the “T − C (day), tumor growth delay” value [5, 10] was 7.8 days, the “Mean body wt change” value ([5]; 55 mg/kg i.p. days 4-8 and 11-15, nadir d8) was −2.4 (d8) g/mouse and the “Tumor Log10 cell kill” value ([5]; 55 mg/kg i.p.) was 5.2.

Source: patent US9783547B2, “Water soluble 4-azapodophyllotoxin analogs” (CENTRE NATIONAL DE LA RECHERCHE SCIENTIFIQUE (CNRS), priority 2014, dated 2017)
